Where a name gives a salt, the structure may show the parent alone. Read-outs that look alike come from different tables or passages of the source.
Columns and labels:
SHV-1 = target: T1, SHV-1 (Klebsiella pneumoniae, UniProt P0AD64); assay: biochemical
T1 construct: made in house; host or cells: E. coli

OXA-1 = target: T2, OXA-1 (Escherichia coli, UniProt P13661); assay: biochemical
T2 construct: made in house; host or cells: E. coli

CTX-M-15 = target: T3, CTX-M-15 (Escherichia coli, UniProt Q9EXV5); assay: biochemical
T3 construct: made in house; host or cells: E. coli

P99 AmpC = P99 AmpC (Enterobacter cloacae, UniProt P05364); assay: biochemical
OXA-11 = target: T4, OXA-11 (Pseudomonas aeruginosa, UniProt Q06778); assay: biochemical
T4 construct: made in house; host or cells: E. coli

KPC-2 = target: T5, KPC-2 (Klebsiella pneumoniae, UniProt Q9F663); assay: biochemical
T5 construct: made in house; host or cells: E. coli

AmpC P. aeruginosa = target: T6, AmpC P. aeruginosa (Pseudomonas aeruginosa, UniProt P24735); assay: biochemical
T6 construct: made in house; host or cells: E. coli

TEM-1 = target: T7, TEM-1 (Escherichia coli, UniProt P62593); assay: β-lactamase inhibitory activity, nitrocefin hydrolysis; type: biochemical
T7 construct: made in house; host or cells: E. coli

OXA-15 = target: T8, OXA-15 (Pseudomonas aeruginosa, UniProt Q51574); assay: biochemical
T8 construct: made in house; host or cells: E. coli

OXA-48 = target: T9, OXA-48 (Klebsiella pneumoniae, UniProt Q6XEC0); assay: biochemical
T9 construct: made in house; host or cells: E. coli

E. coli ECO 190317 = assay: MIC of compounds alone, broth microdilution (CLSI); conditions: Escherichia coli, ECO190317, read-out: MIC alone
[1] = class (D), nitrocefin 200 μM, 30 min pre-incubation, room temperature, read-out: BLA IC50 OXA-1
[2] = class (A), nitrocefin 200 μM, 30 min pre-incubation, room temperature, read-out: BLA IC50 CTX-M-15
[3] = class (A), nitrocefin 200 μM, 30 min pre-incubation, room temperature, read-out: BLA IC50 KPC-2
[4] = class (A), nitrocefin 200 μM, 30 min pre-incubation, room temperature, read-out: BLA IC50 TEM-1
[5] = class (D), nitrocefin 200 μM, 30 min pre-incubation, room temperature, read-out: BLA IC50 OXA-48
[6] = class (C), nitrocefin 200 μM, 30 min pre-incubation, room temperature, read-out: BLA IC50 AmpC (PAE)

SMILES	IC50 (SHV-1) [nM]	IC50 (OXA-1; [1]) [nM]	IC50 (CTX-M-15; [2]) [nM]	IC50 (P99 AmpC) [nM]	IC50 (OXA-11) [nM]	IC50 (KPC-2; [3]) [nM]	IC50 (AmpC P. aeruginosa) [nM]	IC50 (TEM-1; [4]) [nM]	IC50 (OXA-15) [nM]	IC50 (OXA-48; [5]) [nM]	MIC (E. coli ECO 190317) [µg/mL]	IC50 (AmpC P. aeruginosa; [6]) [nM]	IC50 (TEM-1) [nM]	IC50 (OXA-1) [nM]	IC50 (CTX-M-15) [nM]	IC50 (KPC-2) [nM]	IC50 (OXA-48) [nM]
CCOC(=O)[C@@H]1c2c(sc3ccccc23)[C@@H]2CN1C(=O)N2OS(=O)(=O)[O-].[Na+] (relative stereo) [Example 2, sulfate]	0.43	37	2.6	0.51	2.2	0.94	2.5	0.22	830	0.66	–	–	–	–	–	–	–
CCOC(=O)[C@@H]1c2c(sc3ccccc23)[C@@H]2CN1C(=O)N2OS(=O)(=O)[O-].[Na+] (relative stereo) [Example 2]	–	–	–	–	–	–	–	–	–	–	> 32	–	–	–	–	–	–
NC(=O)[C@@H]1c2c(sc3ccccc23)[C@@H]2CN1C(=O)N2OS(=O)(=O)[O-].[Na+] (relative stereo) [Example 3, sulfate]	2.2	190	2.5	4.5	31	9.3	–	1.3	7100	4.8	–	62	–	–	–	–	–
NC(=O)[C@@H]1c2c(sc3ccccc23)[C@@H]2CN1C(=O)N2OS(=O)(=O)[O-].[Na+] (relative stereo) [Example 3]	–	–	–	–	–	–	–	–	–	–	8	–	–	–	–	–	–
CCOC(=O)[C@@H]1c2c(n(C)c3ccccc23)[C@@H]2CN1C(=O)N2OS(=O)(=O)[O-].[Na+] (relative stereo) [Example 6, sulfate]	0.25	1300	1.5	2	160	4.2	–	0.2	6500	4.6	–	3.6	–	–	–	–	–
CCOC(=O)[C@@H]1c2c(n(C)c3ccccc23)[C@@H]2CN1C(=O)N2OS(=O)(=O)[O-].[Na+] (relative stereo) [Example 6]	–	–	–	–	–	–	–	–	–	–	> 32	–	–	–	–	–	–
CC(C)(O/N=C(\C(=O)N[C@@H]1C(=O)N2C(C(=O)[O-])=C(C[n+]3ccccc3)CS[C@H]12)c1csc(N)n1)C(=O)O [CAZ, Ceftazidime, reference compound]	–	–	–	–	–	–	–	–	–	–	128	–	–	–	–	–	–
O=C1N2Cc3c(sc4ccccc34)C(C2)N1OS(=O)(=O)[O-].[Na+] (stereo not drawn) [Example 1, Sodium (2,5-methano-3-oxo-1,5-dihydrobenzothiopheno[2,3-e][1,3]diazepin-4-yl) sulfate]	4.1	120	1	17	41	26	8.8	0.65	3400	1.1	16	–	–	–	–	–	–
O=C1N2Cc3nc4ccccc4cc3C(C2)N1OS(=O)(=O)[O-].[Na+] (stereo not drawn) [Example 4, sodium 1,4-methano-3-oxo-1,5-dihydro-[1,3]diazepino[5,6-b]quinolin-2-yl) sulfate]	150	4100	9.9	120	590	370	–	36	13000	1.5	–	2800	–	–	–	–	–
O=C1N2Cc3nc4ccccc4cc3C(C2)N1OS(=O)(=O)[O-].[Na+] (stereo not drawn) [Example 4]	–	–	–	–	–	–	–	–	–	–	8	–	–	–	–	–	–
O=C1N2Cc3nc4cnccc4cc3C(C2)N1OS(=O)(=O)[O-].[Na+] (stereo not drawn) [Example 5, sodium (1,4-methano-3-oxo-1,5-dihydro-[1,3]diazepino[5,6-b][1,7]naphthyridin-2-yl) sulfate]	77	1700	14	100	190	160	–	14	1800	1	4	3600	–	–	–	–	–
CCN(CC)C(=O)N1CCc2sc3c(c2C1)CN1CC3N(OS(=O)(=O)O)C1=O (stereo not drawn) [Example 7, sodium [9-(diethylcarbamoyl)-2,5-methano-3-oxo-5,7,8,10-tetrahydro-1H-pyrido[3,4]thieno[1,3-d][1,3]diazepin-4-yl] sulfate]	13	5100	1.3	–	110	26	–	–	14000	6.8	> 32	550	43	–	–	–	–
O=C1N2Cc3c(sc4c3CNCC4)C(C2)N1OS(=O)(=O)O (stereo not drawn) [Example 8, (2,5-methano-3-oxo-1,5,7,8,9,10-hexahydropyrido[2,3]thieno[2,4-d][1,3]diazepin-4-yl) hydrogen Sulfate]	26	15000	6.1	1600	840	1300	–	9.6	30000	18	1	8600	–	–	–	–	–
Cn1c2c(c3scnc31)C1CN(C2)C(=O)N1OS(=O)(=O)O (stereo not drawn) [Example 9, sodium (6,9-methano-4-methyl-7-oxo-5,9-dihydrothiazolo[3,4]pyrrolo[1,3-d][1,3]diazepin-8-yl) sulfate]	0.57	–	–	120	62	–	590	–	940	–	> 32	–	0.49	290	1.1	26	1.2

From patent US11530227B2, “Heterocyclic compounds and their use in preventing or treating bacterial infections” (MUTABILIS, priority 2018, dated 2022)
